The values below come from ChEMBL document CHEMBL1201862, “PubChem BioAssay data set” (2004).

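1) Cells in 96-well plates. 2) Compound, 48 h, 5 concentrations. 3) Linear interpolation between surrounding doses. 4) Unreached endpoint = highest concentration. Abbreviation: GI50, concentration required for 50% inhibition of growth.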 The source made the active and inactive calls. No stated cut-off is given here; in the data, active = GI50 up to about 1.1 µM and inactive = higher.

Among the test systems are TK-10; SN12C; Malme-3M; SF-295; EKVX; SW-620; DU-145; HOP-92; COLO 205; U-251; NCI-H522; ACHN; HT-29; SF-539; LOX IMVI; HCT-15; NCI-H460; BT-549; CCRF-CEM.
Test in all cases: NCI anticancer screen, dose series, 48 h

Turning to `CC[C@H]1C=CCC[C@@]2(C[C@@H]3CC[C@H]4[C@H](C(=O)OCCCCCCCCCCCCCCCC(=O)N(CCCN)C[C@@H](O)CCN)[C@]5(CCC[C@@H](C)O5)NC(=[N+]34)N2)O1`, the GI50 with TK-10 is 1.46 µM (inactive); in the assay on SN12C, 0.776 µM (active); with Malme-3M, 0.196 µM (active); in the assay with SF-295 it was 1.63 µM (inactive); in the assay with EKVX it was 1.08 µM (active); in the assay on SW-620, 0.604 µM (active). Further, the GI50 was 1.1 µM (active) in the assay with DU-145; 0.318 µM (active) in the assay on HOP-92; 0.342 µM (active) in the assay with COLO 205; 0.378 µM (active) in the assay on U-251; 1.04 µM (active) with NCI-H522; 0.513 µM (active) in the assay on ACHN. Further, the GI50 in the assay on HT-29 was 0.387 µM (active); with SF-539, 1.49 µM (inactive); in the assay on LOX IMVI, 0.36 µM (active); in the assay with HCT-15, 0.723 µM; in the assay with NCI-H460 it was 0.52 µM (active); with BT-549, 1.71 µM (inactive).

Take `O=C(/C=C/c1ccc(O)cc1)c1cc(O)cc(O)c1`: the GI50 with TK-10 was 24.4 µM (inactive); with SN12C, 15.2 µM (inactive); in the assay with Malme-3M, 20.4 µM (inactive); in the assay with SF-295, 15.7 µM (inactive); in the assay with EKVX, 17.3 µM (inactive); in the assay on CCRF-CEM, 3.36 µM (inactive). Further, the GI50 in the assay on DU-145 was 12.7 µM (inactive); in the assay on HOP-92 it was 14.3 µM (inactive); in the assay with COLO 205, 18 µM (inactive); in the assay on U-251 it was 14.5 µM (inactive); with NCI-H522, 3.95 µM (inactive); in the assay on ACHN it was 6.79 µM (inactive). The GI50 was 17.5 µM (inactive) with HT-29; 13.5 µM (inactive) in the assay on SF-539; 4.32 µM (inactive) in the assay on LOX IMVI; 5.4 µM in the assay with HCT-15; 14.3 µM (inactive) in the assay with BT-549.

For the molecule `COCOc1ccc(C(=O)C(C)c2ccc(OCOC)cc2OCOC)c(O)c1` (stereo not given), the GI50 in the assay on TK-10 is > 100 µM (inactive); in the assay with SN12C, > 100 µM (inactive); with Malme-3M, > 100 µM (inactive); with EKVX, 83.6 µM (inactive); in the assay on SW-620, > 100 µM (inactive); with CCRF-CEM, 83.4 µM (inactive). The GI50 is > 100 µM (inactive) with DU-145; 48.1 µM (inactive) in the assay on HOP-92; > 100 µM (inactive) in the assay on COLO 205; > 100 µM (inactive) in the assay with U-251; 41.5 µM (inactive) with NCI-H522; > 100 µM (inactive) in the assay on ACHN. Besides, the GI50 in the assay with HT-29 was > 100 µM (inactive); with SF-539, > 100 µM (inactive); with HCT-15, 78.9 µM; in the assay on NCI-H460, > 100 µM (inactive); in the assay with BT-549, 60.5 µM (inactive).

As for `Cc1ccc(/C=N/NC2=NCCN2)s1`, the GI50 with TK-10, with SN12C, in the assay on Malme-3M, in the assay on SF-295, in the assay on EKVX and with SW-620 was > 100 µM (inactive) in each case. Moreover, the GI50 in the assay on DU-145, in the assay on HOP-92, in the assay with COLO 205, in the assay with U-251, in the assay with NCI-H522 and in the assay on ACHN was > 100 µM (inactive) each time. Also, the GI50 in the assay with HT-29 is > 100 µM (inactive); with SF-539, > 100 µM (inactive); in the assay with LOX IMVI, > 100 µM (inactive); in the assay on HCT-15 it was more than 100 µM; in the assay on BT-549 it was 23.3 µM (inactive).

In the case of `Cc1ccccc1NC(=S)N/N=C(/c1ccccc1)c1ccccn1`, the GI50 with TK-10 was < 0.0295 µM (active); in the assay on SN12C, 0.067 µM (active); with SF-295, 0.0883 µM (active); in the assay on EKVX it was < 0.0381 µM (active); in the assay on SW-620, < 0.01 µM (active); in the assay on CCRF-CEM it was < 0.01 µM (active). Besides, the GI50 in the assay on DU-145 was 0.838 µM (active); with HOP-92, 0.283 µM (active); with COLO 205 it was < 0.01 µM (active); in the assay on U-251, < 0.01 µM (active); with NCI-H522 it was 0.0902 µM (active); in the assay on ACHN, < 0.01 µM (active). Besides, the GI50 was < 0.0182 µM (active) in the assay on HT-29; 0.384 µM (active) in the assay with SF-539; < 0.01 µM (active) with LOX IMVI; less than 0.01 µM in the assay on HCT-15; 0.0702 µM (active) with NCI-H460; 2.58 µM (inactive) in the assay with BT-549.

Consider `CCCCCC#CCOC(=O)C(=[N+]=[N-])P(=O)(c1ccccc1)c1ccccc1`, for which the GI50 in the assay on TK-10, in the assay with SN12C, in the assay with Malme-3M, with SF-295, in the assay on EKVX and in the assay with SW-620 was > 10 µM (inactive) each time. In addition, the GI50 in the assay with DU-145, with HOP-92, with U-251, in the assay with ACHN, in the assay on HT-29 and with SF-539 was > 10 µM (inactive) in each case. Moreover, the GI50 in the assay on LOX IMVI is > 10 µM (inactive); with HCT-15, more than 10 µM; with NCI-H460, > 10 µM (inactive); in the assay on BT-549, > 10 µM (inactive).

Turning to `COc1ccc(Nc2nn3c(=O)c4c(C)c(C)sc4nc3s2)cc1`, the GI50 with TK-10 is 26.8 µM (inactive); in the assay with SN12C, 33.5 µM (inactive); with Malme-3M, 32.2 µM (inactive); in the assay on SF-295, 37.7 µM (inactive); in the assay with SW-620, 55.7 µM (inactive); in the assay on CCRF-CEM, 31.6 µM (inactive). The GI50 was 18.1 µM (inactive) in the assay with DU-145; 27.3 µM (inactive) in the assay on HOP-92; > 100 µM (inactive) in the assay on COLO 205; 37.9 µM (inactive) in the assay on U-251; 25.5 µM (inactive) in the assay with NCI-H522; 41.4 µM (inactive) in the assay with ACHN. Moreover, the GI50 with HT-29 was 42.3 µM (inactive); with SF-539, 33 µM (inactive); with LOX IMVI, 56.9 µM (inactive); with HCT-15 it was 44.7 µM; with NCI-H460, 28.6 µM (inactive); in the assay with BT-549, > 100 µM (inactive).

As for `Cc1ccc2oc(=O)c(C(=O)Nc3nc(C45CC6CC(CC(C6)C4)C5)cs3)cc2c1`, the GI50 in the assay on SN12C, in the assay on Malme-3M, in the assay on SF-295, with EKVX, with SW-620 and in the assay on CCRF-CEM was > 100 µM (inactive) each time. The GI50 in the assay with DU-145, with HOP-92, in the assay with COLO 205, with U-251, with NCI-H522 and with ACHN was > 100 µM (inactive) in each case. Also, the GI50 in the assay with HT-29 is > 100 µM (inactive); with SF-539 it was > 100 µM (inactive); in the assay with LOX IMVI, > 100 µM (inactive); in the assay on HCT-15, more than 100 µM; in the assay with NCI-H460, > 100 µM (inactive); in the assay with BT-549, > 100 µM (inactive).

In the case of `O=C(CCc1ccccc1CO)NCCc1ccccc1`, the GI50 in the assay on TK-10, in the assay with SN12C, in the assay with SF-295, with EKVX, with SW-620 and in the assay with CCRF-CEM was > 100 µM (inactive) in each case. In addition, the GI50 with DU-145, with HOP-92, with COLO 205, in the assay on U-251, with NCI-H522 and in the assay on ACHN was > 100 µM (inactive) each time. Besides, the GI50 in the assay on HT-29 is > 100 µM (inactive); in the assay with SF-539, > 100 µM (inactive); in the assay on HCT-15, more than 100 µM; in the assay on NCI-H460, > 100 µM (inactive); in the assay with BT-549, > 100 µM (inactive).

For the molecule `CC1(C)Cc2c(sc3[nH]c(=S)[nH]c(=S)c23)CS1`, the GI50 was 95.5 µM (inactive) in the assay on TK-10; 40.5 µM (inactive) in the assay with SN12C; 20.6 µM (inactive) in the assay with Malme-3M; 53.1 µM (inactive) in the assay with SW-620; 29.4 µM (inactive) in the assay with CCRF-CEM; > 100 µM (inactive) in the assay with DU-145. Besides, the GI50 was 12.4 µM (inactive) in the assay with HOP-92; 32.1 µM (inactive) in the assay on COLO 205; 41.9 µM (inactive) in the assay with U-251; 27.1 µM (inactive) in the assay on HT-29; 37.9 µM (inactive) in the assay on SF-539; 32.8 µM (inactive) in the assay on LOX IMVI. Besides, the GI50 was 33.3 µM in the assay on HCT-15, 40.2 µM (inactive) in the assay on NCI-H460 and 46.3 µM (inactive) with BT-549.

For `N=C(N)C1CN(CCc2c[nH]cn2)C(=O)NC1=O` (stereo not given), the GI50 in the assay on TK-10 was > 100 µM (inactive); in the assay with SN12C, > 100 µM (inactive); in the assay on Malme-3M it was 36 µM (inactive); with SF-295 it was > 100 µM (inactive); with EKVX, > 100 µM (inactive); with SW-620 it was > 100 µM (inactive). The GI50 with CCRF-CEM, in the assay with DU-145, with HOP-92, in the assay with COLO 205, in the assay on U-251 and in the assay on NCI-H522 was > 100 µM (inactive) in each case. For the same molecule, the GI50 in the assay on ACHN was > 100 µM (inactive); in the assay on HT-29, > 100 µM (inactive); in the assay on SF-539, > 100 µM (inactive); with HCT-15, more than 100 µM; in the assay with NCI-H460, > 100 µM (inactive); in the assay with BT-549 it was > 100 µM (inactive).

As to `Cc1cc(S(=O)(=O)O)ccc1/N=N/c1c(O)ccc2ccccc12`, the GI50 with TK-10, in the assay on SN12C, in the assay with Malme-3M, in the assay on SF-295, in the assay with EKVX and in the assay on SW-620 was > 100 µM (inactive) throughout. Moreover, the GI50 in the assay with CCRF-CEM, in the assay with DU-145, in the assay on HOP-92, in the assay with COLO 205, in the assay on U-251 and in the assay with NCI-H522 was > 100 µM (inactive) in each case. The GI50 was > 100 µM (inactive) in the assay with ACHN, 82.2 µM (inactive) in the assay with HT-29, more than 100 µM with HCT-15 and > 100 µM (inactive) in the assay on BT-549.
